Experimental data as given in paper PMC11577759, “The structure of lipopeptides impacts their antiviral activity and mode of action against SARS-CoV-2 in vitro” (Applied and Environmental Microbiology, 2024).

Assays:
Vero E6 cells = test: Cytotoxicity, CyQUANT XTT cell viability assay; assay type: cell-based, Chlorocebus sp.; conditions: for IC50 (half maximal inhibitory concentration, cytotoxicity): Vero E6 cells, XTT, mean (standard deviation), fengycin and caspofungin determined at higher concentrations in a subsequent experiment; for IC50 (half maximal inhibitory concentration, cytotoxicity) / Cell viability: 72 h; for Cell viability: 100 µg/mL, Vero E6
Procedure: Chlorocebus sp. kidney epithelial cells (Vero E6; ATCC VERO C1008) were cultured in Dulbecco’s Modified Eagle medium (DMEM) High Glucose w/ Stable Glutamine w/ Sodium Pyruvate (VWR, USA) supplemented with 2% (vol/vol) of decomplemented fetal bovine serum (FBS, Biowest, France) and 1% (vol/vol) Penicillin-Streptomycin (VWR, USA). The cells were grown at 37°C in a humidified 5% CO2 atmosphere. Cells were routinely passaged when they reached 100% confluence and were passaged until passage 15.
The cytotoxic activity of the lipopeptides was assessed using a CyQUANT XTT Cell Viability Assay (Thermo Fisher Scientific) according to the manufacturer’s instructions. […] The cells were then incubated for 72 h at 37°C. The kit was then used following the manufacturer’s instructions, and the plates were read at 450 nm and 660 nm using a Multiskan GO Microplate Spectrophotometer (Thermo Fisher Scientific). The percentage of viable cells was calculated as (AT450 − AT660 − AB450) / (AC450 − AC660) × 100%, where AT450, AT660, AB450, AC450, and AC660 represent the absorbance of the tested well at 450 nm, of the tested well at 660 nm, of the blank (only medium) at 450 nm, of the control cells at 450 nm, and of the control cells at 660 nm, respectively. One hundred percent viability corresponds to the viability of uninfected cells. DMSO concentrations ranging from 0.5% (vol/vol) to 0.001% (vol/vol) were used as a negative control for the assay. Every sample was tested in triplicate.

SARS-CoV-2 [1] = test: Replication / antiviral assay, viral RNA in supernatant by RT-qPCR; assay type: cell-based; conditions: for Maximal RNA reduction at 100 µg/mL: 72 h pi, compared to untreated infected cells; for EC50 (half maximal effective concentration): SARS-CoV-2 MOI 0.01, Vero E6, viral RNA at 72 h pi by RT-qPCR, mean (standard deviation)
SARS-CoV-2 [2] = tested on: SARS-CoV-2; set-up: method as in PMID 36868316; conditions: co-incubated with SARS-CoV-2; 12.5 µg/mL iturin A, 25 µg/mL mycosubtilin; Vero cells; cited from earlier work
Vero cells = tested on: Vero cells; set-up: method as in earlier work; conditions: ref 38 (Shekunov et al.); cited from earlier work

Row | Substance | IC50 (half maximal inhibitory concentration, cytotoxicity) (Vero E6 cells) | Maximal RNA reduction at 100 µg/mL (SARS-CoV-2 [1]) | EC50 (half maximal effective concentration) (SARS-CoV-2 [1]) | Cell viability (Vero E6 cells) | Viral titer and SARS-CoV-2 cytopathic effects (SARS-CoV-2 [2]) | Maximal RNA reduction at 100 µg/mL (SARS-CoV-2 [1]; listed as lichenysin) | Cytotoxicity (Vero E6 cells; concentrations up to 100 µg/mL, Vero E6, 72 h) | Maximal RNA reduction at 100 µg/mL (SARS-CoV-2 [1]; listed as polymyxin B) | IC50 (Vero cells) | Maximal RNA reduction at 100 µg/mL (SARS-CoV-2 [1]; listed as pumilacidin)
1 | Fusaricidin | 24.6 (1.1) µg/mL | 3.3-log | 51.2 (13.6) µg/mL | – | – | – | – | – | – | –
2 | Iturin A | 4.9 (0.5) µg/mL | 3.9-log | 18.2 (1.8) µg/mL | no cell viability was observed | could reduce the viral titer and SARS-CoV-2 cytopathic effects (CPEs) | – | – | – | – | –
3 | Lichenysin | 28.1 (1.4) µg/mL | 6.3-log | 25.9 (3.2) µg/mL | – | – | 6.3 log | – | – | – | –
4 | Mycosubtilin | 1.8 (0.1) µg/mL | 4.1-log | 12.9 (2.0) µg/mL | no cell viability was observed | could reduce the viral titer and SARS-CoV-2 cytopathic effects (CPEs) | – | – | – | – | –
5 | Polymyxin B [reference compound] | >100.0 µg/mL | 0.3-log | >100.0 µg/mL | – | – | – | did not cause any cytotoxicity | no activity up to 100 µg/mL | 1.1 µg/mL | –
6 | Pumilacidin | 36.0 (3.5) µg/mL | 6.3-log | 47.8 (0.4) µg/mL | – | – | – | – | – | – | 6.3 log
